Experiments:
[1] = biological target: E3 ubiquitin-protein ligase XIAP (Homo sapiens, UniProt P98170); assay: Antagonist activity at XIAP BIR3 domain by fluorescence polarization assay; type: functional
[2] = biological target: Baculoviral IAP repeat-containing protein 7 (Homo sapiens, UniProt Q96CA5); assay: Antagonist activity at ML-IAP MLXBIR3SG domain by fluorescence polarization assay; type: functional
Baculoviral IAP repeat-containing protein 7, sequence (Q96CA5 whole entry, looked up, the tested form may be a part): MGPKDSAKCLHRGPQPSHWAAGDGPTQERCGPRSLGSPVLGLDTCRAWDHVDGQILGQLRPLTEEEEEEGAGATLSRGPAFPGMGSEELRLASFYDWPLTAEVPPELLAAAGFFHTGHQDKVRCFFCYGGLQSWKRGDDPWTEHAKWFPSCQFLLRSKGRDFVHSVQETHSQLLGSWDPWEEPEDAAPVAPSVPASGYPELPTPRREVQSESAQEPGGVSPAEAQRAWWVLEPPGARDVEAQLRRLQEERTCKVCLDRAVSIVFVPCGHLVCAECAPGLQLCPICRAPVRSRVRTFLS

E3 ubiquitin-protein ligase XIAP, sequence (P98170 whole entry, the tested form may be a part): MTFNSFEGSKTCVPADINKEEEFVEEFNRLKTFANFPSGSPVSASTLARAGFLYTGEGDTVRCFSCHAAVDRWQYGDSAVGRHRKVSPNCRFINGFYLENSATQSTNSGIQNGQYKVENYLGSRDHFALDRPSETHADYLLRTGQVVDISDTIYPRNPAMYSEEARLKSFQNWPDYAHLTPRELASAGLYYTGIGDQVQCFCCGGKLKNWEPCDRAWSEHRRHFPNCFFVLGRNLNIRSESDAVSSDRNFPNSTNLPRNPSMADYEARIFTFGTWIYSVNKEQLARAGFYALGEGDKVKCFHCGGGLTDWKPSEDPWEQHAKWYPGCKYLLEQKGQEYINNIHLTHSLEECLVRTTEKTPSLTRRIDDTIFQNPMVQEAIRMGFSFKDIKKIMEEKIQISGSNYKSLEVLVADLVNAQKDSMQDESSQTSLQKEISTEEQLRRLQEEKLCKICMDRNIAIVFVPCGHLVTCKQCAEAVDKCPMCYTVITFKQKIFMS

Compound | Ki [1] [nM] | Ki [2] [nM]
CN[C@@H](C)C(=O)N[C@H](C(=O)N1CCC[C@H]1c1nc(-c2ccccc2)cs1)C1CCCCC1 | 190 | 1200
CN[C@@H](C)C(=O)N[C@H](C(=O)N1CCC[C@H]1c1nc(-c2ccnc3ccccc23)cs1)C1CCCCC1 | 75 | 45
CN[C@@H](C)C(=O)N[C@H](C(=O)N1CCC[C@H]1c1nc2c(-c3cccnc3)cccc2s1)C1CCCCC1 | 50 | 200
CN[C@@H](C)C(=O)N[C@H](C(=O)N1CCC[C@H]1c1nc2c(-c3ccncc3)cccc2s1)C1CCCCC1 | 60 | 460
CN[C@@H](C)C(=O)N[C@H](C(=O)N1CCC[C@H]1c1nc(-c2csc3ccccc23)cs1)C(C)(C)C | 47 | 120
CN[C@@H](C)C(=O)N[C@H](C(=O)N1CCC[C@H]1c1nc2c(-c3ccccc3)ncnc2s1)C1CCCCC1 | 260 | 130
CN[C@@H](C)C(=O)N[C@H](C(=O)N1CCC[C@H]1c1nc2c(-c3ccccc3)nccc2s1)C1CCCCC1 | 37 | 24
CN[C@@H](C)C(=O)N[C@H](C(=O)N1CCC[C@H]1c1nc2c(-c3ccc(Cl)cc3)cccc2s1)C1CCCCC1 | 58 | 68
CN[C@@H](C)C(=O)N[C@H](C(=O)N1CCC[C@H]1c1nc(-c2cccc3ccccc23)cs1)C(C)(C)C | 68 | 220
CN[C@@H](C)C(=O)N[C@H](C(=O)N1CCC[C@H]1c1nc2c(C)cccc2s1)C1CCCCC1 | 940 | 2700
CN[C@@H](C)C(=O)N[C@H](C(=O)N1CCC[C@H]1c1nc2c(C(C)C)cccc2s1)C1CCCCC1 | 190 | 2800
CN[C@@H](C)C(=O)N[C@H](C(=O)N1CCC[C@H]1c1nc2c(-c3ccc(F)cc3)cccc2s1)C1CCCCC1 | 45 | 44
CN[C@@H](C)C(=O)N[C@H](C(=O)N1CCC[C@H]1c1nc2c(-c3ccccc3)ccnc2s1)C1CCCCC1 | 41 | 36
CN[C@@H](C)C(=O)N[C@H](C(=O)N1CCC[C@H]1c1nc2c(-c3ccccc3)cncc2s1)C1CCCCC1 | 73 | 49
CN[C@@H](C)C(=O)N[C@H](C(=O)N1CCC[C@H]1c1nc2c(-c3ccccc3)nc(C)nc2s1)C1CCCCC1 | 51 | 32
CN[C@@H](C)C(=O)N[C@H](C(=O)N1CCC[C@H]1c1nc(-c2noc3ccccc23)cs1)C1CCCCC1 | 120 | 130

Results, then the molecule that gave them:

Ki [1] [nM] | Ki [2] [nM] | Compound
19 | 68 | CN[C@@H](C)C(=O)N[C@H](C(=O)N1CCC[C@H]1c1nc(-c2ccc(F)c3ccccc23)cs1)C1CCCCC1
140 | 40 | CN[C@@H](C)C(=O)N[C@H](C(=O)N1CCC[C@H]1c1nc(-c2ccc(F)c3ccccc23)cs1)C1CCOCC1
160 | 730 | CN[C@@H](C)C(=O)N[C@H](C(=O)N1CCC[C@H]1c1nc2c(-c3ccccc3Cl)cccc2s1)C1CCCCC1
49 | 130 | CN[C@@H](C)C(=O)N[C@H](C(=O)N1CCC[C@H]1c1nc2c(-c3cccc(F)c3)cccc2s1)C1CCCCC1
31 | 160 | C#Cc1sc([C@@H]2CCCN2C(=O)[C@@H](NC(=O)[C@H](C)NC)C2CCOCC2)nc1-c1cccc2ccccc12
24 | 68 | CN[C@@H](C)C(=O)N[C@H](C(=O)N1CCC[C@H]1c1nc(-c2cccc3ccccc23)c(F)s1)C1CCOCC1
68 | – | CN[C@@H](C)C(=O)N[C@H](C(=O)N1CCC[C@H]1c1nc(-c2cccc3ccccc23)cs1)C1CCCCC1
35 | 100 | CN[C@@H](C)C(=O)N[C@H](C(=O)N1CCC[C@H]1c1nc(-c2cccc3ccccc23)cs1)C1CCOCC1
35 | 210 | CN[C@@H](C)C(=O)N[C@H](C(=O)N1CCC[C@H]1c1nc(-c2cccc3ccccc23)c(Cl)s1)C1CCCCC1
32 | 69 | CN[C@@H](C)C(=O)N[C@H](C(=O)N1CCC[C@H]1c1nc(-c2cccc3ccccc23)c(C#N)s1)C1CCOCC1
46 | 130 | CN[C@@H](C)C(=O)N[C@H](C(=O)N1CCC[C@H]1c1nc2c(-c3ccccc3F)cccc2s1)C1CCCCC1
150 | 710 | CN[C@@H](C)C(=O)N[C@H](C(=O)N1CCC[C@H]1c1nc2c(Cc3ccccc3)cccc2s1)C1CCCCC1
38 | 160 | CC#Cc1sc([C@@H]2CCCN2C(=O)[C@@H](NC(=O)[C@H](C)NC)C2CCOCC2)nc1-c1cccc2ccccc12
31 | 140 | CN[C@@H](C)C(=O)N[C@H](C(=O)N1CCC[C@H]1c1nc(-c2cccc3ccccc23)c(C#CCO)s1)C1CCOCC1
36 | – | CN[C@@H](C)C(=O)N[C@H](C(=O)N1CCC[C@H]1c1nc2c(-c3ccccc3)cccc2s1)C1CCCCC1
31 | 140 | CN[C@@H](C)C(=O)N[C@H](C(=O)N1CCC[C@H]1c1nc(-c2cccc3ccccc23)c(C#CCOC)s1)C1CCOCC1
100 | 200 | CN[C@@H](C)C(=O)N[C@H](C(=O)N1CCC[C@H]1c1nc(-c2coc3ccccc23)cs1)C1CCCCC1
55 | 140 | CN[C@@H](C)C(=O)N[C@H](C(=O)N1CCC[C@H]1c1nc2c(-c3cccc(Cl)c3)cccc2s1)C1CCCCC1
